Test results from patent US20060100431A1, “Biologically active compounds” (Amura Therapeutics Limited, priority 2002, published 2006).

What was measured:
Assay type in all cases: biochemical
Bovine cathepsin S = target: T1, Bovine cathepsin S (Bos taurus, UniProt P25326); test: Cathepsin S peptidase activity assay, bovine enzyme (Ki); conditions: species of cathepsin S not given; read-out: Ki, inhibitors of cathepsin S
T1 construct: purchased CN Biosciences
Summary of the method: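 Bovine cathepsin S activity followed by fluorescence increase from substrate conversion to product over time, enzyme added to start the reaction, at 25±1° C. Buffer 10 mM bis-tris-propane pH 6.5 with 1 mM EDTA, 5 mM 2-mercaptoethanol, 1 mM CaCl2; DMSO kept below 1% (vol./vol.).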

human cathepsin B = target: T2, human cathepsin B (Homo sapiens, UniProt P07858); test: Cathepsin B peptidase activity assay (Ki); conditions: read-out: Ki, inhibitors of cathepsin B
T2 construct: purchased CN Biosciences
Summary of the method: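 Buffer: 10 mM bis-tris-propane pH 6.5, 1 mM EDTA, 5 mM 2-mercaptoethanol, 1 mM CaCl2; DMSO <1%. Ki assumed reversible, pure-competitive, from Ki^app=Ki(1+[So]/KM^app) by non-linear regression.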

Wild-type cruzipain = Wild-type cruzipain (Trypanosoma cruzi, UniProt P25779); test: Trypanosoma cruzi cruzipain peptidase activity assay (Ki); conditions: read-out: Ki, inhibitors of cruzain and cruzipains
Chain of Wild-type cruzipain (P25779 whole entry): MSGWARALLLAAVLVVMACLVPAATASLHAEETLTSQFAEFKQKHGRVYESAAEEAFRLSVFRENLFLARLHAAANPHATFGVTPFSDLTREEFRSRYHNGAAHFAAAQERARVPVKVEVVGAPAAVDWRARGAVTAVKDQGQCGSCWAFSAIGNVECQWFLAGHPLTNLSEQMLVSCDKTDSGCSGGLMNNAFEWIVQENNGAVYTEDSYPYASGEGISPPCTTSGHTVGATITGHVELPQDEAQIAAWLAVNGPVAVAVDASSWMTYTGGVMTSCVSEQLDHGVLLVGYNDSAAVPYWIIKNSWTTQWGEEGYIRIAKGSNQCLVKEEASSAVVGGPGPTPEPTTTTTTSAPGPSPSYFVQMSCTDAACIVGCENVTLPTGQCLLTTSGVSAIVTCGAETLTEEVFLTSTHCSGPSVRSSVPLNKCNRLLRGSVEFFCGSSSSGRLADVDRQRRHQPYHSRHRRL
Summary of the method: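 Native cruzipain from T. cruzi Dm28 epimastigotes, 2.5 nM, in 100 mM sodium phosphate pH 6.75 with 1 mM EDTA and 10 mM L-cysteine, 25 °C, DMSO <1%. Rates taken from continuous fluorogenic substrate read; Ki by regression assuming reversible pure-competitive inhibition.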

human cathepsin L = target: T3, human cathepsin L (Homo sapiens, UniProt P07711); test: Cathepsin L peptidase activity assay (Ki); conditions: read-out: Ki, inhibitors of cathepsin L
T3 construct: purchased CN Biosciences
T3 sequence (P07711 114-333): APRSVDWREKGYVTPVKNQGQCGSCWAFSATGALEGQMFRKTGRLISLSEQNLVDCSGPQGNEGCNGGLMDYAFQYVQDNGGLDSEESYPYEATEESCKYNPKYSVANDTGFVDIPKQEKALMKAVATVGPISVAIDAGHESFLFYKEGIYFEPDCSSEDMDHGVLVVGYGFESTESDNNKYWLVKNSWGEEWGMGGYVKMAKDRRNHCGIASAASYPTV
Summary of the method: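 Human cathepsin L at 1 nM with Ac-Phe-Arg-AMC at its KM^app (~20 μM) in 10 mM bis-tris-propane pH 6.5, 1 mM EDTA, 5 mM 2-mercaptoethanol, 1 mM CaCl2, DMSO <1%, 25±1° C. Reaction enzyme-initiated; AMC fluorescence (ex 365/em 450 nm) monitored over time.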

CPB2.8ΔCTE = target: T4, CPB2.8ΔCTE (Leishmania mexicana, UniProt P36400); test: Leishmania mexicana cysteine protease B (CPB) peptidase activity assay (Ki); conditions: Ki, inhibitors of Leismania mexicana CPB protease
T4 construct: Wild-type recombinant CPB without the C-terminal extention (i.e. CPB2.8ΔCTE); Dr. Jeremy Mottram (Wellcome Centre for Molecular Parasitology, University of Glasgow)
T4 sequence (P36400 126-343, stated change not applied): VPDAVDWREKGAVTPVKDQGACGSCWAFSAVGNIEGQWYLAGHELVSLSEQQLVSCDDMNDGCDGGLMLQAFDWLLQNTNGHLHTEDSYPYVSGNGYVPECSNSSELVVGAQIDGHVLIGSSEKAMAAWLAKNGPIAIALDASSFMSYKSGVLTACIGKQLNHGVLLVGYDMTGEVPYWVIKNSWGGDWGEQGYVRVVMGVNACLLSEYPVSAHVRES
Summary of the method: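 Recombinant CPB2.8ΔCTE (0.25 nM) was assayed in 100 mM sodium acetate pH 5.5 with 1 mM EDTA, 200 mM NaCl and 10 mM DTT at 25 °C, DMSO <1%, enzyme added to start. Rates were taken from continuous fluorescence slopes; apparent Ki was fitted assuming reversible, pure-competitive inhibition.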

Measured: Ki

T1 sequence (P25326 115-331): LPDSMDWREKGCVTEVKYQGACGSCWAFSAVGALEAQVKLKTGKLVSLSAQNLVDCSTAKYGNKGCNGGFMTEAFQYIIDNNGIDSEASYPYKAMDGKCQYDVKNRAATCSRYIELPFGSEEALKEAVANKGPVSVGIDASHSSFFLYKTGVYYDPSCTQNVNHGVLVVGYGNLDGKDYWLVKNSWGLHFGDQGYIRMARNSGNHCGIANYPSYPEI

CC(C)C[C@H](NC(=O)c1ccc(N)cc1)C(=O)N1CC[C@@H]2[C@H]1C(=O)CN2C(=O)c1cccc(S(C)(=O)=O)c1 [Example 61, (3aR,6aS)-4-Amino-N-{(1S)-1-[4-(3-methanesulfonyl-benzoyl)-6-oxo-hexahydro-pyrrolo[3,2-b]pyrrole-1-carbonyl]-3-methyl-butyl}-benzamide]
< 5 µM: Bovine cathepsin S | human cathepsin B | Wild-type cruzipain

CC(C)C[C@H](NC(=O)c1ccc(CN)cc1)C(=O)N1CC[C@@H]2[C@H]1C(=O)CN2C(=O)c1ccccc1 [Example 93, (3aR,6aS)-4-Aminomethyl-N-[(1S)-1-(4-benzoyl-6-oxo-hexahydro-pyrrolo[3,2-b]pyrrole-1-carbonyl)-3-methyl-butyl]-benzamide]
not listed: human cathepsin B
< 5 µM: all other assays above

CC(C)C[C@H](NC(=O)c1ccc(N(C)C)cc1)C(=O)N1CC[C@@H]2[C@H]1C(=O)CN2C(=O)c1ccc2[nH]ccc2c1 [Example 98, (3aR,6aS)-4-Dimethylamino-N-{(1S)-1-[4-(1H-indole-5-carbonyl)-6-oxo-hexahydro-pyrrolo[3,2-b]pyrrole-1-carbonyl]-3-methyl-butyl}-benzamide]
not listed: human cathepsin B
< 5 µM: all other assays above

CC(C)C[C@H](NC(=O)c1ccc(N(C)C)cc1)C(=O)N1CC[C@@H]2[C@H]1C(=O)CN2C(=O)[C@H](C)NC(=O)OCc1ccccc1 [Example 145, (3aS,6aR)-((1S)-2-{4-[(2S)-2-(4-Dimethylamino-benzoylamino)-4-methyl-pentanoyl]-3-oxo-hexahydro-pyrrolo[3,2-b]pyrrole-1-yl}-1-methyl-2-oxo-ethyl)-carbamic acid benzyl ester]
not listed: human cathepsin B
< 5 µM: all other assays above

CC(C)C[C@H](NC(=O)c1ccc(N(C)C)cc1)C(=O)N1CC[C@@H]2[C@H]1C(=O)CN2C(=O)[C@@H]1CCCN1C(=O)OCc1ccccc1 [Example 154, (3aS,6aR)-(2S)-2-{4-[(2S)-2-(4-Dimethylamino-benzoylamino)-4-methyl-pentanoyl]-3-oxo-hexahydro-pyrrolo[3,2-b]pyrrole-1-carbonyl}-pyrrolidine-1-carboxylic acid benzyl ester]
not listed: human cathepsin B
< 5 µM: all other assays above

CC[C@H](NC(=O)OCc1ccccc1)C(=O)N1CC(=O)[C@@H]2[C@H]1CCN2C(=O)[C@H](CC(C)C)NC(=O)c1ccc(N(C)C)cc1 [Example 159, (3aS,6aR)-((1S)-1-{4-[(2S)-2-(4-Dimethylamino-benzoylamino)-4-methyl-pentanoyl]-3-oxo-hexahydro-pyrrolo[3,2-b]pyrrole-1-carbonyl}-propyl)-carbamic acid benzyl ester]
not listed: human cathepsin B
< 5 µM: all other assays above

CC[C@H](C)[C@H](NC(=O)OCc1ccccc1)C(=O)N1CC(=O)[C@@H]2[C@H]1CCN2C(=O)[C@H](CC(C)C)NC(=O)c1ccc(N(C)C)cc1 [Example 161, (3 aS,6aR)-((1S,2S)-1-{4-[(2S)-2-(4-Dimethylamino-benzoylamino)-4-methyl-pentanoyl]-3-oxo-hexahydro-pyrrolo[3,2-b]pyrrole-1-carbonyl}-2-methyl-butyl)-carbamic acid benzyl ester]
not listed: human cathepsin B
< 5 µM: all other assays above

CC(C)C[C@H](NC(=O)c1ccc(N(C)C)cc1)C(=O)N1CC[C@@H]2[C@H]1C(=O)CN2C(=O)c1ccsc1 [Example 164, (3aR,6aS)-4-Dimethylamino-N-{(1S)-3-methyl-1-[6-oxo-4-(thiophene-3-carbonyl)-hexahydro-pyrrolo[3,2-b]pyrrole-1-carbonyl]-butyl}-benzamide]
not listed: human cathepsin B
< 5 µM: all other assays above

Cc1ccc(C(=O)N[C@@H](CC(C)C)C(=O)N2CC[C@@H]3[C@H]2C(=O)CN3C(=O)c2ccccc2)cc1 [Example 170]
not listed: human cathepsin B
< 5 µM: all other assays above

CCc1ccc(C(=O)N[C@@H](CC(C)C)C(=O)N2CC[C@@H]3[C@H]2C(=O)CN3C(=O)c2ccccc2)cc1 [Example 171, (3aR,6aS)-N-[(1S)-1-(4-Benzoyl-6-oxo-hexahydro-pyrrolo[3,2-b]pyrrole-1-carbonyl)-3-methyl-butyl]-4-ethyl-benzamide]
not listed: human cathepsin B
< 5 µM: all other assays above

CC(C)C[C@H](NC(=O)c1ccc(C(C)C)cc1)C(=O)N1CC[C@@H]2[C@H]1C(=O)CN2C(=O)c1ccccc1 [Example 172, (3aR,6aS)-N-[(1S)-1-(4-Benzoyl-6-oxo-hexahydro-pyrrolo[3,2-b]pyrrole-1-carbonyl)-3-methyl-butyl]-4-isopropyl-benzamide]
not listed: human cathepsin B
< 5 µM: all other assays above

CC(C)C[C@H](NC(=O)c1ccccc1)C(=O)N1CC[C@@H]2[C@H]1C(=O)CN2C(=O)c1ccccc1 [Example 174, (3aR,6aS)-N-[(1S)-1-(4-Benzoyl-6-oxo-hexahydro-pyrrolo[3,2-b]pyrrole-1-carbonyl)-3-methyl-butyl]-benzamide]
not listed: human cathepsin B
< 5 µM: all other assays above

CC(C)C[C@H](NC(=O)c1cccc(CN)c1)C(=O)N1CC[C@@H]2[C@H]1C(=O)CN2C(=O)c1ccccc1S(C)(=O)=O [Example 185, (3aR,6aS)-3-Aminomethyl-N-{(1S)-1-[4-(2-methanesulfonyl-benzoyl)-6-oxo-hexahydro-pyrrolo[3,2-b]pyrrole-1-carbonyl]-3-methyl-butyl}-benzamide]
not listed: human cathepsin B
< 5 µM: all other assays above

CC(C)C[C@H](NC(=O)c1ccc(N2CCCC2)cc1)C(=O)N1CC[C@@H]2[C@H]1C(=O)CN2C(=O)c1ccccc1 [Example 193, (3aR,6aS)-N-[(1S)-1-(4-Benzoyl-6-oxo-hexahydro-pyrrolo[3,2-b]pyrrole-1-carbonyl)-3-methyl-butyl]-4-pyrrolidin-1-yl-benzamide]
not listed: human cathepsin B
< 5 µM: all other assays above

CCC[C@H](NC(C)=O)C(=O)N1CC(=O)[C@@H]2[C@H]1CCN2C(=O)[C@H](CC(C)C)NC(=O)c1ccc(N(C)C)cc1 [Example 245, (3aR,6aS)-N-{(1S)-1-[4-((2S)-2-Acetylamino-pentanoyl)-6-oxo-hexahydro-pyrrolo[3,2-b]pyrrole-1-carbonyl]-3-methyl-butyl}-4-dimethylamino-benzamide]
not listed: human cathepsin B
< 5 µM: all other assays above

O=C(N[C@@H](Cc1ccc(O)cc1)C(=O)N1CC[C@@H]2[C@H]1C(=O)CN2C(=O)c1ccccc1)c1cccc(Br)c1 [Example 298, (3aR,6aS)-N-[(1S)-2-(4-Benzoyl-6-oxo-hexahydro-pyrrolo[3,2-b]pyrrol-1-yl)-1-(4-hydroxy-benzyl)-2-oxo-ethyl]-3-bromo-benzamide]
< 5 µM: Bovine cathepsin S | human cathepsin B | Wild-type cruzipain

Nc1ccc(C(=O)N2CC(=O)[C@@H]3[C@H]2CCN3C(=O)[C@H](Cc2ccc(O)cc2)NC(=O)c2cccc(Br)c2)cc1 [Example 310, (3aR,6aS)-N-[(1S)-2-[4-(4-Amino-benzoyl)-6-oxo-hexahydro-pyrrolo[3,2-b]pyrrole-1-yl]-1-(4-hydroxy-benzyl)-2-oxo-ethyl]-3-bromo-benzamide]
< 5 µM: Bovine cathepsin S | human cathepsin B
